Legend:
[1] = system: Tobacco Budworm 3rd Instar; assay: Tobacco budworm secondary test, third-instar larvae on treated cotton cotyledons; format: in vivo, Heliothis virescens (Fabricus)
Southern Armyworm = assay: Southern armyworm test, third-instar larvae on treated Sieva lima bean leaves; format: in vivo, Spodoptera eridania (Cramer); conditions: third-instar larvae
Procedure: Test formulations and procedures used for evaluation are as follows:
A. 100 mg of the test material is weighed, placed in a funnel over a 113 g narrow-mouth bottle, rinsed into the bottle with a 35 mL scoop of acetone, followed by a 35 mL scoop of water and another 35 mL scoop of acetone to yield 1000 ppm in 65% acetone. If the material is not soluble, it is broken up with a glass rod and used as a suspension.
B. This stock solution ("A") is used to make 300 ppm solutions or suspensions by pipetting 30 mL of "A" into a bottle containing 70 mL of 50% acetone to yield 300 ppm. Further dilutions in 50% acetone are made as required.
C. Tests requiring 10 ppm acetone solutions: 1 mL of "A" is pipetted into 99 mL of acetone to yield 10 ppm. Additional dilutions are made using 50% acetone as required.
Southern Armyworm--Spodoptera eridania (Cramer)
A Sieva lima bean plant with just the primary leaves expanded to 1.91 cm is dipped for three seconds with agitation in the "A" solution of 1000 ppm and set in the hood to dry. Following this, one leaf is placed in a 9 cm petri dish which has a moist filter paper in the bottom and 10 third-instar armyworm larvae about 1 cm long. This dish is covered and held at 80° F., and 50% r.h. After two days, mortality counts and estimates of the amount of feeding are made. Compounds showing partial kill and/or inhibition of feeding are held for an extra day for further observations.
All compounds showing activity as defined above are retested, using the second leaf on the bean plant, after an interval of seven days from original treatment, as an assay of residual activity.

Q: For `CC(C)(OC(=O)N(N=Cc1ccc(C(F)(F)F)cc1)C(=N)NN=Cc1ccc(C(F)(F)F)cc1)C(Cl)(Cl)Cl` [CF3 / CF3 / Cl3 CC(CH3)2], which “Mortality Rating Tobacco Budworm 3rd Instar” value ([1]; 10 ppm) is on record?
A: 0 (No effect)

Q: What about the “Mortality Rating Tobacco Budworm 3rd Instar” value ([1]; 100 ppm) of the same molecule?
A: 0 (No effect)

Q: And the “reduced feeding (R) Tobacco Budworm 3rd Instar” value (shortened to “reduced feeding”) ([1]; 100 ppm)?
A: R

Q: And the “Mortality Rating Tobacco Budworm 3rd Instar” value ([1]; 1000 ppm)?
A: 9 (100%)

Q: What about the “Mortality Rating Southern Armyworm” value (Southern Armyworm; 10 ppm) of the same molecule?
A: 0 (No effect)

Q: What about the “Mortality Rating Southern Armyworm” value (Southern Armyworm; 100 ppm) of the same molecule?
A: 9 (100%)

Q: What about the “Mortality Rating Southern Armyworm” value (Southern Armyworm; 1000 ppm) of the same molecule?
A: 9 (100%)

Q: Which results are given for `N=C(NN=Cc1ccc(C(F)(F)F)cc1)N(N=Cc1ccc(C(F)(F)F)cc1)C(=O)OCC(Cl)(Cl)Cl` [CF3 / CF3 / Cl3 CCH2]?
A: Mortality Rating Tobacco Budworm 3rd Instar ([1]; 10 ppm): 0 (No effect); Mortality Rating Tobacco Budworm 3rd Instar ([1]; 100 ppm): 0 (No effect); reduced feeding (R) Tobacco Budworm 3rd Instar ([1]; 100 ppm): R; Mortality Rating Tobacco Budworm 3rd Instar ([1]; 1000 ppm): 8 (86-99%); Mortality Rating Southern Armyworm (Southern Armyworm; 10 ppm): 8 (86-99%); Mortality Rating Southern Armyworm (Southern Armyworm; 100 ppm): 9 (100%); Mortality Rating Southern Armyworm (Southern Armyworm; 1000 ppm): 9 (100%)

Q: For `N=C(NN=Cc1ccc(C(F)(F)F)cc1)N(N=Cc1ccc(C(F)(F)F)cc1)C(=O)OCCCl` [CF3 / CF3 / ClCH2 CH2, 3-[p-(trifluoromethyl)benzylidene]-2-{{[p-(trifluoromethyl)benzylidene]amino}amidino}carbazate ester], which “Mortality Rating Tobacco Budworm 3rd Instar” value ([1]; 100 ppm) is on record?
A: 0 (No effect)

Q: What about the “Mortality Rating Tobacco Budworm 3rd Instar” value ([1]; 1000 ppm) of the same molecule?
A: 2 (26-35%)

Q: What about the “reduced feeding” value ([1]; 1000 ppm) of the same molecule?
A: R

Q: And the “Mortality Rating Southern Armyworm” value (Southern Armyworm; 10 ppm)?
A: 8 (86-99%)

Q: What about the “Mortality Rating Southern Armyworm” value (Southern Armyworm; 100 ppm) of the same molecule?
A: 9 (100%)

Q: What about the “Mortality Rating Southern Armyworm” value (Southern Armyworm; 1000 ppm) of the same molecule?
A: 9 (100%)

Q: What does the source list for `CCC(C)OC(=O)N(N=Cc1ccc(C(F)(F)F)cc1)C(=N)NN=Cc1ccc(C(F)(F)F)cc1` (stereo not shown) [CF3 / CF3 / drawing 54]?
A: Mortality Rating Tobacco Budworm 3rd Instar ([1]; 100 ppm): 0 (No effect); reduced feeding (R) Tobacco Budworm 3rd Instar ([1]; 100 ppm): R; Mortality Rating Tobacco Budworm 3rd Instar ([1]; 1000 ppm): 6 (66-75%); reduced feeding (R) Tobacco Budworm 3rd Instar ([1]; 1000 ppm): R; Mortality Rating Southern Armyworm (Southern Armyworm; 10 ppm): 6 (66-75%); Mortality Rating Southern Armyworm (Southern Armyworm; 100 ppm): 9 (100%); Mortality Rating Southern Armyworm (Southern Armyworm; 1000 ppm): 9 (100%)

Q: Which results are given for `N=C(NN=Cc1ccc(Cl)cc1)NN=Cc1ccc(C(F)(F)F)cc1` [CF3 / Cl / B]?
A: Mortality Rating Tobacco Budworm 3rd Instar ([1]; 10 ppm): 0 (No effect); Mortality Rating Tobacco Budworm 3rd Instar ([1]; 100 ppm): 0 (No effect); reduced feeding (R) Tobacco Budworm 3rd Instar ([1]; 100 ppm): R; Mortality Rating Tobacco Budworm 3rd Instar ([1]; 1000 ppm): 4 (46-55%); reduced feeding (R) Tobacco Budworm 3rd Instar ([1]; 1000 ppm): R; Mortality Rating Southern Armyworm (Southern Armyworm; 100 ppm): 9 (100%); Mortality Rating Southern Armyworm (Southern Armyworm; 1000 ppm): 9 (100%)

Q: How did the “Mortality Rating Tobacco Budworm 3rd Instar” value ([1]; 1000 ppm) turn out when `N=C(NN=Cc1ccc(OC(F)(F)C(F)F)cc1)NN=Cc1ccc(C(F)(F)F)cc1` [CF3 / HCF2 CF2 O / B, 1-{[p-(1,1,2,2-tetrafluoroethoxy)benzylidene]amino}-3-{[p-(trifluoromethyl)benzylidene]amino}guanidine] was run?
A: 3 (36-45%)

Q: And the “Mortality Rating Southern Armyworm” value (Southern Armyworm; 100 ppm)?
A: 9 (100%)

Q: And the “Mortality Rating Southern Armyworm” value (Southern Armyworm; 1000 ppm)?
A: 9 (100%)

Q: With `N=C(NN=Cc1ccc(OCC(F)(F)F)cc1)NN=Cc1ccc(OCC(F)(F)F)cc1` [CF3 CH2 / S] as the molecule, how does the “Mortality Rating Tobacco Budworm 3rd Instar” value ([1]; 100 ppm) read?
A: 0 (No effect)

Q: And the “Mortality Rating Tobacco Budworm 3rd Instar” value ([1]; 1000 ppm)?
A: 0 (No effect)

Q: And the “reduced feeding” value ([1]; 1000 ppm)?
A: R

Q: And the “Mortality Rating Southern Armyworm” value (Southern Armyworm; 10 ppm)?
A: 6 (66-75%)

Q: And the “Mortality Rating Southern Armyworm” value (Southern Armyworm; 100 ppm)?
A: 8 (86-99%)

Q: And the “Mortality Rating Southern Armyworm” value (Southern Armyworm; 1000 ppm)?
A: 9 (100%)

Q: Which “Mortality Rating Tobacco Budworm 3rd Instar” value ([1]; 100 ppm) does the source give for `N=C(NN=Cc1ccc(OCC(F)(F)F)cc1)NN=Cc1ccc(OCC(F)(F)F)cc1` [CF3 CH2 O / B] here?
A: 0 (No effect)

Q: What about the “Mortality Rating Tobacco Budworm 3rd Instar” value ([1]; 1000 ppm) of the same molecule?
A: 0 (No effect)

Q: And the “reduced feeding” value ([1]; 1000 ppm)?
A: R

Q: What about the “Mortality Rating Southern Armyworm” value (Southern Armyworm; 100 ppm) of the same molecule?
A: 0 (No effect)

Q: What about the “Mortality Rating Southern Armyworm” value (Southern Armyworm; 1000 ppm) of the same molecule?
A: 4 (46-55%)

Q: Which results are given for `N=C(NN=Cc1ccc(OC(F)(F)F)cc1)NN=Cc1ccc(OC(F)(F)F)cc1` [CF3 O / B]?
A: Mortality Rating Tobacco Budworm 3rd Instar ([1]; 1000 ppm): 7 (76-85%); Mortality Rating Southern Armyworm (Southern Armyworm; 10 ppm): 4 (46-55%); Mortality Rating Southern Armyworm (Southern Armyworm; 100 ppm): 9 (100%); Mortality Rating Southern Armyworm (Southern Armyworm; 1000 ppm): 9 (100%)
